Toxic doses and inconclusive results are not listed. No stated cut-off is given here; in the data, active means T/C of 150% or more; inactive means T/C below 125%.
Tested on: L1210 leukemia ip in BDF1 mice, survival T/C
Assay: NCI In Vivo Anticancer Drug Screen. Data for tumor model L1210 Leukemia (intraperitoneal) in B6D2F1 (BDF1) mice
Conditions: endpoint: mean survival time, higher = longer survival
Outline: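 In this screen, tumor-bearing mice given compound are compared to those given vehicle, and their survival values are reported as a treated-to-control quotient.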

[1] = dose: 100.0 mg/kg/injection, schedule: Q01DX009 (ip), vehicle: Klucel (hydroxypropylcellulose) (HPC)
[2] = dose: 100.0 mg/kg/injection, schedule: Q04DX003 (ip), vehicle: Klucel (hydroxypropylcellulose) (HPC)
[3] = dose: 200.0 mg/kg/injection, schedule: Q01DX009 (ip), vehicle: Klucel (hydroxypropylcellulose) (HPC)
[4] = dose: 200.0 mg/kg/injection, schedule: Q04DX003 (ip), vehicle: Klucel (hydroxypropylcellulose) (HPC)
[5] = dose: 400.0 mg/kg/injection, schedule: Q04DX003 (ip), vehicle: Klucel (hydroxypropylcellulose) (HPC)
[6] = dose: 100.0 mg/kg/injection, schedule: Q04DX003 (ip), vehicle: saline
[7] = dose: 200.0 mg/kg/injection, schedule: Q04DX003 (ip), vehicle: saline
[8] = dose: 400.0 mg/kg/injection, schedule: Q04DX003 (ip), vehicle: saline
[9] = dose: 50.0 mg/kg/injection, schedule: Q01DX009 (ip), vehicle: Klucel (hydroxypropylcellulose) (HPC)
[10] = dose: 50.0 mg/kg/injection, schedule: Q04DX003 (ip), vehicle: Klucel (hydroxypropylcellulose) (HPC)
[11] = dose: 100.0 mg/kg/injection, schedule: Q04DX002 (ip), vehicle: Klucel (hydroxypropylcellulose) (HPC)
[12] = dose: 200.0 mg/kg/injection, schedule: Q04DX002 (ip), vehicle: Klucel (hydroxypropylcellulose) (HPC)
[13] = dose: 400.0 mg/kg/injection, schedule: Q04DX002 (ip), vehicle: Klucel (hydroxypropylcellulose) (HPC)
[14] = dose: 25.0 mg/kg/injection, schedule: Q04DX003 (ip), vehicle: Klucel (hydroxypropylcellulose) (HPC)
[15] = dose: 100.0 mg/kg/injection, schedule: Q04DX003 (ip), vehicle: saline with Tween-80
[16] = dose: 200.0 mg/kg/injection, schedule: Q04DX003 (ip), vehicle: saline with Tween-80
[17] = dose: 100.0 mg/kg/injection, schedule: Q01DX001 (ip), vehicle: Klucel (hydroxypropylcellulose) (HPC)
[18] = dose: 200.0 mg/kg/injection, schedule: Q01DX001 (ip), vehicle: Klucel (hydroxypropylcellulose) (HPC)

Measured: T/C

N#CN(Cc1ccccc1)Cc1ccccc1
inactive: [1] 100 % of control | [2] 101 % of control | [3] 105 % of control | [4] 102 % of control | dose: 400.0 mg/kg/injection, schedule: Q01DX009 (ip), vehicle: Klucel (hydroxypropylcellulose) (HPC) 109 % of control | [5] 95 % of control

CC12OC(=O)CC1CC(=O)O2 (stereo not drawn)
inactive: dose: 100.0 mg/kg/injection, schedule: Q01DX001 (ip), vehicle: saline sonified 101 % of control | dose: 100.0 mg/kg/injection, schedule: Q01DX009 (ip), vehicle: saline sonified 109 % of control | dose: 200.0 mg/kg/injection, schedule: Q01DX001 (ip), vehicle: saline sonified 95 % of control | dose: 200.0 mg/kg/injection, schedule: Q01DX009 (ip), vehicle: saline sonified 105 % of control | dose: 400.0 mg/kg/injection, schedule: Q01DX001 (ip), vehicle: saline sonified 92 % of control | dose: 400.0 mg/kg/injection, schedule: Q01DX009 (ip), vehicle: saline sonified 102 % of control

Nc1nc(N)c2cc(N3CCCC3c3ccc(Cl)c(Cl)c3)ccc2n1 (stereo not drawn)
inactive: dose: 1.56 mg/kg/injection, schedule: Q01DX009 (ip), vehicle: water 103 % of control | dose: 3.12 mg/kg/injection, schedule: Q01DX009 (ip), vehicle: water 110 % of control | dose: 6.25 mg/kg/injection, schedule: Q01DX009 (ip), vehicle: water 98 % of control

OCC1OC(OCC2OC(OC3(CO)OC(CO)C(O)C3O)C(O)C(O)C2O)C(O)C(O)C1O (stereo not drawn)
inactive: [6] 101 % of control | [7] 106 % of control | [8] 104 % of control

OCCc1cccc(O)c1
inactive: dose: 50.0 mg/kg/injection, schedule: Q01DX001 (ip), vehicle: saline 102 % of control | dose: 100.0 mg/kg/injection, schedule: Q01DX001 (ip), vehicle: saline 93 % of control | dose: 200.0 mg/kg/injection, schedule: Q01DX001 (ip), vehicle: saline 86 % of control | dose: 400.0 mg/kg/injection, schedule: Q01DX001 (ip), vehicle: saline 100 % of control

Oc1ccc(C2CCCCC2)c(O)c1
inactive: [9] 96 % of control | [10] 101 % of control | [1] 96 % of control | [2] 98 % of control | [3] 100 % of control | [4] 103 % of control

CC(=O)Nc1cccc(C(F)(F)F)c1
inactive: dose: 25.0 mg/kg/injection, schedule: Q01DX009 (ip), vehicle: Klucel (hydroxypropylcellulose) (HPC) 101 % of control | [9] 96 % of control | [1] 101 % of control

CCOc1ccc(-n2c(=O)c(N=Nc3ccc(Cl)cc3)c(O)n(-c3ccccc3OC)c2=S)cc1
inactive: dose: 37.5 mg/kg/injection, schedule: Q01DX001 (ip), vehicle: Klucel (hydroxypropylcellulose) (HPC) 92 % of control | dose: 75.0 mg/kg/injection, schedule: Q01DX001 (ip), vehicle: Klucel (hydroxypropylcellulose) (HPC) 113 % of control | dose: 150.0 mg/kg/injection, schedule: Q01DX001 (ip), vehicle: Klucel (hydroxypropylcellulose) (HPC) 103 % of control

COc1ccc(CCN=c2c3ccccc3ccc3ccccc23)cc1OC
inactive: [6] 111 % of control | [7] 97 % of control | [8] 105 % of control

O=S1(=O)CC(Cl)(Br)C1 (tested in a mixture with another compound)
inactive: [11] 94 % of control | [12] 97 % of control | [13] 89 % of control

CCCCCCCCN(c1ccc(C#N)cc1)S(=O)(=O)c1ccc(C)cc1
inactive: dose: 75.0 mg/kg/injection, schedule: Q01DX009 (ip), vehicle: Klucel (hydroxypropylcellulose) (HPC) 92 % of control | dose: 150.0 mg/kg/injection, schedule: Q01DX009 (ip), vehicle: Klucel (hydroxypropylcellulose) (HPC) 87 % of control | dose: 300.0 mg/kg/injection, schedule: Q01DX009 (ip), vehicle: Klucel (hydroxypropylcellulose) (HPC) 97 % of control

CCOC(=O)Nc1cc(Nc2ccc(Cl)cc2)c2nc(-c3ccc(Cl)cc3)c(-c3ccc(Cl)cc3)nc2n1
inactive: [14] 104 % of control | [10] 101 % of control | [2] 98 % of control

CNc1ccc(C(=O)c2ccccc2C(=O)O)cc1[N+](=O)[O-]
inactive: dose: 100.0 mg/kg/injection, schedule: Q01DX009 (ip), vehicle: saline with Tween-80 92 % of control | [15] 97 % of control | dose: 200.0 mg/kg/injection, schedule: Q01DX009 (ip), vehicle: saline with Tween-80 95 % of control | [16] 89 % of control | dose: 400.0 mg/kg/injection, schedule: Q01DX009 (ip), vehicle: saline with Tween-80 93 % of control | dose: 400.0 mg/kg/injection, schedule: Q04DX003 (ip), vehicle: saline with Tween-80 94 % of control

S=C(Nc1cccc(Cl)c1)Nc1cccc(Cl)c1
inactive: [15] 94 % of control | [16] 97 % of control

COc1cccc(C(Cc2ccc(N3C(N)=NC(N)=NC3(C)C)cc2)C(=O)Nc2ccc(S(=O)(=O)F)cc2)c1 (stereo not drawn)
inactive: dose: 50.0 mg/kg/injection, schedule: Q01DX001 (ip), vehicle: Klucel (hydroxypropylcellulose) (HPC) 99 % of control | [17] 99 % of control | [18] 96 % of control

CNS(=O)(=O)c1c(C)cccc1CC(=O)c1ccccc1
inactive: dose: 100.0 mg/kg/injection, schedule: Q01DX001 (ip), vehicle: steriod suspending solution 96 % of control | dose: 400.0 mg/kg/injection, schedule: Q01DX001 (ip), vehicle: steriod suspending solution 94 % of control

O=P1(CCc2ccc(Br)cc2)CC(Br)C(Br)C1 (stereo not drawn)
inactive: [2] 104 % of control | [4] 106 % of control | [5] 96 % of control

CC(=O)Nc1ccc2c(c1)Cc1cc(N=Cc3ccc4c(c3)OCO4)ccc1-2
inactive: dose: 100.0 mg/kg/injection, schedule: Q01DX001 (ip), vehicle: carboxymethylcellulose (CMC) 91 % of control | dose: 200.0 mg/kg/injection, schedule: Q01DX001 (ip), vehicle: carboxymethylcellulose (CMC) 104 % of control | dose: 400.0 mg/kg/injection, schedule: Q01DX001 (ip), vehicle: carboxymethylcellulose (CMC) 93 % of control

CCCCNC(=O)NC(C)c1ccccc1 (stereo not drawn)
inactive: [11] 112 % of control | [12] 112 % of control | [13] 105 % of control

[N-]=[N+]=C1c2ccccc2-c2ccccc21
inactive: [17] 94 % of control | [2] 104 % of control | [18] 93 % of control | [4] 90 % of control | dose: 400.0 mg/kg/injection, schedule: Q01DX001 (ip), vehicle: Klucel (hydroxypropylcellulose) (HPC) 91 % of control | [5] 101 % of control

CCCCC(/C=N\NC(=O)c1ccc[n+](C)c1)=C/c1ccccc1
inactive: dose: 100.0 mg/kg/injection, schedule: Q01DX001 (ip), vehicle: saline with Tween-80 96 % of control | dose: 200.0 mg/kg/injection, schedule: Q01DX001 (ip), vehicle: saline with Tween-80 102 % of control

NC(N)=Nc1nc2ccccc2s1
inactive: dose: 12.5 mg/kg/injection, schedule: Q01DX009 (ip), vehicle: saline 94 % of control | dose: 25.0 mg/kg/injection, schedule: Q01DX009 (ip), vehicle: saline 100 % of control | [14] 103 % of control | dose: 50.0 mg/kg/injection, schedule: Q01DX009 (ip), vehicle: saline 96 % of control | [10] 100 % of control

Nc1cc(Cl)c2n[nH]nc2n1
inactive: dose: 75.0 mg/kg/injection, schedule: Q01DX001 (ip), vehicle: other 96 % of control | dose: 150.0 mg/kg/injection, schedule: Q01DX001 (ip), vehicle: other 102 % of control | dose: 300.0 mg/kg/injection, schedule: Q01DX001 (ip), vehicle: other 100 % of control

CC(=O)[C@@]1(O)CC[C@H]2[C@@H]3C=C(C)C4=CC(=O)C=C[C@]4(C)[C@@]3(F)[C@@H](O)C[C@@]21C
inactive: dose: 50.0 mg/kg/injection, schedule: Q01DX001 (sc), vehicle: steriod suspending solution 96 % of control | dose: 100.0 mg/kg/injection, schedule: Q01DX001 (sc), vehicle: steriod suspending solution 102 % of control | dose: 200.0 mg/kg/injection, schedule: Q01DX001 (sc), vehicle: steriod suspending solution 105 % of control | dose: 400.0 mg/kg/injection, schedule: Q01DX001 (sc), vehicle: steriod suspending solution 118 % of control

From PubChem BioAssay AID248 (DTP/NCI, 2004)
